From patent publication US20030109537A1, “Methods and materials for treating bone conditions” (priority 2001, published 2003)

Experiments:
[1] = system: PDGF-A positive mast cells; assay: Immunohistochemistry for PDGF-A on bone samples; type: in vivo, rat
PDGF-A mRNA = assay: RNase protection assay of steady state mRNA levels; type: in vivo, rat
Procedure: Induction of parathyroid bone disease. Three month-old female Sprague-Dawley rats (Harlan Sprague-Dawley, Inc., Indianapolis, Ind.) were randomly divided into 3 groups, with 5 rats per group. In group 1 (pulsatile or intermittent PTH), each rat received 80 μg/kg/day human PTH (1-34) (hPTH) in vehicle (150 mM NaCl, 1 mM HCl and 2% heat-inactivated rat serum) by subcutaneous (s.c.) injection once daily for 7 days. In group 2 (vehicle), an osmotic pump (Alza Corp., Mountainview, Calif.) that delivered vehicle alone at a rate of 1 μl/hr for 7 days was implanted in each rat. In group 3 (continuous PTH), an osmotic pump that delivered 40 μg/kg/day hPTH at a rate of 1 μl/hr for 7 days was implanted in each rat. On day 8, all rats were anesthetized with ketamine (50 mg/kg): xylazine HCl (5 mg/kg) and sacrificed by decapitation. Both tibiae were removed from each rat. Right tibiae were fixed by immersion in 70% ethanol then processed for bone histology to verify the appearance of peritrabecular fibrosis. Left tibiae were frozen in liquid N2 and stored at −80° C. until processed for RNA isolation.
Isolation of RNA. Frozen proximal tibial metaphyses were individually homogenized in guanidine isothiocyanate using a Spex freezer mill (Industries, Inc., Edison, N.J.). Total RNA was extracted from the homogenate using a modified organic solvent method. See Chomczynski et al., Anal. Biochem., 162:156-159 (1987). Isolated RNA yields were determined spectrophotometrically at 260 nm using standard methods.
RNase protection assay. Steady state mRNA levels for PDGF-A and other growth factors were determined using an RNase protection assay kit according to the manufacturer's protocol (Pharmingen, San Diego, Calif.). Quantitation of protected RNA fragments was performed by PhosphoImager analyses and normalized to glyceraldehyde-3-phosphate dehydrogenase (GAPDH) and the ribosomal structural protein L32.
RNase protection assays were performed as described in Example 1, for PDGF-A, BMP-1, BMP-6, BMP-3, and TGF-β1 to verify the microarray data. […]

## human PTH (1-34)
[1]; PTH-treated rats
  mast cell staining for PDGF-A peptide: stained intensely
[1]; PTH-treated vs vehicle, PTH+trapidil treated
  number of PDGF-A positive mast cells: increased
PDGF-A mRNA; RNase protection assay verifying microarray data
  PTH-induced regulation of mRNA levels for BMP-1, -3, and -6, as well as TGF-β: confirmed
PDGF-A mRNA; continuous PTH, rat tibial metaphysis, RNase protection assay, normalized to L32
  increase in the mRNA levels for PDGF-A: 3.3 fold
PDGF-A mRNA; pulsatile PTH, rat tibial metaphysis, RNase protection assay
  effect on steady state mRNA levels for PDGF-A: no effect
